Where two headings read alike, the source gives them in different places.
Target: T1, human DGAT1 enzyme (Homo sapiens, UniProt O75907)
T1 construct: made in house; host or cells: Sf9 insect cells (microsomal membranes)
T1 sequence (O75907 1-488): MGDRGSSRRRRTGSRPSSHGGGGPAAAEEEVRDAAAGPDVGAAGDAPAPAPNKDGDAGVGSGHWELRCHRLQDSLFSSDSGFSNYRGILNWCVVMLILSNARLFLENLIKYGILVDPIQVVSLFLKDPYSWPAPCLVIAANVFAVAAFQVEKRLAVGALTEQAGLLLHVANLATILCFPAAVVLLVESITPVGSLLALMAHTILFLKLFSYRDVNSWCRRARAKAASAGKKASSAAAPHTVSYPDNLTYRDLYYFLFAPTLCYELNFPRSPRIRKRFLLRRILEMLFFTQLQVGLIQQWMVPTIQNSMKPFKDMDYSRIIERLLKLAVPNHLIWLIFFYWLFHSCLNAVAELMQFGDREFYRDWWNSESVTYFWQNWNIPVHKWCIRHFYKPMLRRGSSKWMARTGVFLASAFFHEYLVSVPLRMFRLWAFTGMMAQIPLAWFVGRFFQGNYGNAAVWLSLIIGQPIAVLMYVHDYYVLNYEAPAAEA
Experiment: in vitro DGAT1 inhibition assay (microsomes, [14C]-palmitoyl-CoA, SPA beads)
Format: biochemical
Description: The in vitro assay to identify DGAT1 inhibitors uses human DGAT1 enzyme expressed in Sf9 insect cells prepared as microsomes. The reaction was initiated by the addition of the combined substrates 1,2-dioleoyl-sn-glycerol and [^14C]-palmitoyl-Co A and incubated with test compounds and microsomal membranes for 2 hours at room temperature. The assay was stopped by adding 0.5 mg wheat germ agglutinin beads in assay buffer with 1% Brij-35 and 1% 3-cholamidopropyldimethyl-ammonio-1-propane sulfonate. Plates were sealed with TopSeal and incubated for 18 hours to allow the radioactive triglyceride product to come into proximity with the bead. Plates were read on a TopCount instrument.
Percent inhibition was calculated as the percent of (test compound inhibition minus non-specific binding) relative to (total binding minus non-specific binding). IC50 values were determined by curve fitting the data to a Sigmoidal dose-response in GraphPad Prism utilizing the following equation:
Y=A+(B−A)/(1+10̂((Log IC50−X))),
where A and B are the bottom and top of the curve (highest and lowest inhibition), respectively, and X is the logarithm of concentration.

[1] = human DGAT1 expressed in Sf9 insect cells, microsomes, 2 hours at room temperature, read-out: IC50

Row | IC50 [1] | Compound | IC50
1 | 13300 nM | COC(=O)c1cccc(COC2CCN(c3ccc(NC(=O)c4oc5ccc(-c6ccccc6OC)cc5c4C)cn3)CC2)c1 [Example 72, methyl 3-((1-(5-(5-(2-methoxyphenyl)-3-methylbenzofuran-2-carboxamido)pyridin-2-yl)piperidin-4-yloxy)methyl)benzoate] | 
2 | 106 nM | Cc1c(C(=O)Nc2ccc(N3CCC(OCc4cccc(C(=O)O)c4)CC3)nc2)oc2ccc(-c3ccc(F)cc3)cc12 [Example 37, 3-((1-(5-(5-(4-fluorophenyl)-3-methylbenzofuran-2-carboxamido)pyridin-2-yl)piperidin-4-yloxy)methyl)benzoic acid] | 
3 | 84 nM | Cc1c(C(=O)Nc2ccc(N3CCC(COc4cccc(C(=O)O)c4)CC3)nc2)oc2ccccc12 [Example 91, 3-((1-(5-(3-methylbenzofuran-2-carboxamido)pyridin-2-yl)piperidin-4-yl)methoxy)benzoic acid] | 
4 | 2330 nM | CCOC(=O)c1ccccc1NC(=O)N1CCN(c2ccc(NC(=O)c3sc4ccc(-c5ccccc5)cc4c3C)cn2)CC1 [Example 50, ethyl 2-(4-(5-(3-methyl-5-phenylbenzo[b]thiophene-2-carboxamido)pyridin-2-yl)piperazine-1-carboxamido)benzoate] | 
5 | 2460 nM | CCOC(=O)c1ccccc1NC(=O)N1CCN(c2ccc(NC(=O)c3oc4ccc(-c5ccccc5OC)cc4c3C)cn2)CC1 [Example 68, ethyl 2-(4-(5-(5-(2-methoxyphenyl)-3-methylbenzofuran-2-carboxamido)pyridin-2-yl)piperazine-1-carboxamido)benzoate] | 
6 | 134 nM | Cc1c(C(=O)Nc2ccc(N3CCC(OCc4cccc(C(=O)O)c4)CC3)nc2)oc2ccc(-c3cccc(F)c3)cc12 [Example 29, 3-((1-(5-(5-(3-fluorophenyl)-3-methylbenzofuran-2-carboxamido)pyridin-2-yl)piperidin-4-yloxy)methyl)benzoic acid] | 
7 | 1010 nM | CCOC(=O)c1ccccc1NC(=O)N1CCN(c2ccc(NC(=O)c3oc4ccc(-c5ccc(F)cc5)cc4c3C)cn2)CC1 [Example 38, ethyl 2-(4-(5-(5-(4-fluorophenyl)-3-methylbenzofuran-2-carboxamido)pyridin-2-yl)piperazine-1-carboxamido)benzoate] | 
8 | 108 nM | COc1ccccc1-c1ccc2oc(C(=O)Nc3ccc(N4CCC(OCc5cccc(C(=O)O)c5)CC4)nc3)c(C)c2c1 [Example 73, 3-((1-(5-(5-(2-methoxyphenyl)-3-methylbenzofuran-2-carboxamido)pyridin-2-yl)piperidin-4-yloxy)methyl)benzoic acid] | 
9 |  | Cc1c(C(=O)Nc2ccc(N3CCN(C(=O)Nc4ccccc4F)CC3)nc2)oc2c(C)cccc12 [Example 8, 4-(5-(3,7-dimethylbenzofuran-2-carboxamido)pyridin-2-yl)-N-(2-fluorophenyl)piperazine-1-carboxamide] | 48 nM
10 | 37 nM | O=C(Nc1ccc(N2CCN(C(=O)Nc3ccccc3F)CC2)nc1)c1csc2ccccc12 [Example 10, 4-(5-(benzo[b]thiophene-3-carboxamido)pyridin-2-yl)-N-(2-fluorophenyl)piperazine-1-carboxamide] | 
11 | 55 nM | Cc1c(C(=O)Nc2ccc(N3CCC(COc4cccc(C(=O)O)c4)CC3)nc2)oc2ccc(-c3ccc(F)cc3)cc12 [Example 39, 3-((1-(5-(5-(4-fluorophenyl)-3-methylbenzofuran-2-carboxamido)pyridin-2-yl)piperidin-4-yl)methoxy)benzoic acid] | 
12 | 95 nM | O=C(Nc1ccc(N2CCN(C(=O)Nc3ccccc3F)CC2)nc1)c1coc2ccccc12 [Example 11, 4-(5-(benzofuran-3-carboxamido)pyridin-2-yl)-N-(2-fluorophenyl)piperazine-1-carboxamide] | 
13 | 9 nM | Cc1c(C(=O)Nc2ccc(-c3ccc(OCC(C)(C)C(=O)O)nc3)nc2)oc2ccc(-c3ccccc3)cc12 [Example 59, 2,2-dimethyl-3-(5-(3-methyl-5-phenylbenzofuran-2-carboxamido)-2,3′-bipyridin-6′-yloxy)propanoic acid] | 

— patent publication US20120172369A1 (priority 2009, published 2012)
